The record followed here is US11028079B2 (ConverGene LLC, priority 2015, dated 2021).

The structures appear in SMILES notation. Where only a bound is given, the exact number is not on record here.

The test has as its target T1, BRD4 bromodomains (Homo sapiens, UniProt O60885).
T1 construct: fused on or other part: T7 phage capsid protein (phage-display fusion; the phage DNA is read out by qPCR)
The experiment in a line: BROMOscan bromodomain competition binding assay (DiscoveRx). Conditions: Kd from 11 compound concentrations ranging from 0 to 10 μM, read-out: BROMOscan Relative Activity. The procedure, abridged:
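Compounds in 0.1% DMSO/0.9% MEG competed with a solid-phase acetylated peptide for T7 phage-fused BRD4 bromodomains, with the retained bromodomain measured by qPCR.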
`Cn1cc(-c2ccc3nc(Cl)nc(NCc4cncc(Cl)c4)c3c2)ccc1=O` [Example 113, 5-(2-chloro-4-(((5-chloropyridin-3-yl)methyl)amino)quinazolin-6-yl)-1-methylpyridin-2(1H)-one]: the Kd is over 5000 nM.

With `Cn1cc(-c2ccc3nc(-c4cnn(CCO)c4)nc(NCc4cccc(Cl)c4)c3c2)ccc1=O` [Example 114, 5-(4-((3-chlorobenzyl)amino)-2-(1-(2-hydroxyethyl)-1H-pyrazol-4-yl)quinazolin-6-yl)-1-methylpyridin-2(1H)-one], the Kd fell in the range of 500 to 5000 nM.

On to `Cc1cncc(CNc2nc(N3CCN(CCN(C)C)CC3)nc3ccc(-c4c(C)noc4C)cc23)c1` [Example 115, 2-(4-(2-(dimethylamino)ethyl)piperazin-1-yl)-6-(3,5-dimethylisoxazol-4-yl)-N-((5-methylpyridin-3-yl)methyl)quinazolin-4-amine], for which the Kd is under 500 nM.

In the case of `CN(C)CCN1CCN(c2nc(NCc3cccc(Cl)c3)c3cc(-c4ccn(C)c(=O)c4)ccc3n2)CC1` [Example 116, 4-(4-((3-chlorobenzyl)amino)-2-(4-(2-(dimethylamino)ethyl)piperazin-1-yl)quinazolin-6-yl)-1-methylpyridin-2(1H)-one], the Kd was over 5000 nM.

With `Cc1noc(C)c1-c1ccc2nc(N3CCN(CC(N)=O)CC3)nc(NCc3cncc(Cl)c3)c2c1` [Example 117, 2-(4-(4-(((5-chloropyridin-3-yl)methyl)amino)-6-(3,5-dimethylisoxazol-4-yl)quinazolin-2-yl)piperazin-1-yl)acetamide], the Kd was under 500 nM.

For the molecule `CNC(=O)CN1CCN(c2nc(NCc3cncc(Cl)c3)c3cc(-c4c(C)noc4C)ccc3n2)CC1` [Example 118, 2-(4-(4-(((5-chloropyridin-3-yl)methyl)amino)-6-(3,5-dimethylisoxazol-4-yl)quinazolin-2-yl)piperazin-1-yl)-N-methylacetamide], the Kd was under 500 nM.

With `Cc1noc(C)c1-c1ccc2nc(N3CCN(CC(=O)N(C)C)CC3)nc(NCc3cncc(Cl)c3)c2c1` [Example 119, 2-(4-(4-(((5-chloropyridin-3-yl)methyl)amino)-6-(3,5-dimethylisoxazol-4-yl)quinazolin-2-yl)piperazin-1-yl)-N,N-dimethylacetamide], the Kd is under 500 nM.

For the molecule `Cc1noc(C)c1-c1ccc2nc(N3CCN(CCO)CC3)nc(NCc3cncc(Cl)c3)c2c1` [Example 120, 2-(4-(4-(((5-chloropyridin-3-yl)methyl)amino)-6-(3,5-dimethylisoxazol-4-yl)quinazolin-2-yl)piperazin-1-yl)ethanol], the Kd was under 500 nM.

In the case of `Cn1cc(-c2ccc3nc(N4CCN(CCO)CC4)nc(NCc4cccc(Cl)c4)c3c2)ccc1=O` [Example 121, 5-(4-((3-chlorobenzyl)amino)-2-(4-(2-hydroxyethyl)piperazin-1-yl)quinazolin-6-yl)-1-methylpyridin-2(1H)-one], the Kd was under 500 nM.

Take `Cn1cc(C(=O)N2CCN(c3nc(NCc4cccc(Cl)c4)c4cc(-c5ccc(=O)n(C)c5)ccc4n3)CC2)cn1` [Example 122, 5-(4-((3-chlorobenzyl)amino)-2-(4-(1-methyl-1H-pyrazole-4-carbonyl)piperazin-1-yl)quinazolin-6-yl)-1-methylpyridin-2(1H)-one]: the Kd is under 500 nM.

For `CN(C)CCCN1CCN(c2nc(NCc3cccc(Cl)c3)c3cc(-c4ccc(=O)n(C)c4)ccc3n2)CC1` [Example 123, 5-(4-((3-chlorobenzyl)amino)-2-(4-(3-(dimethylamino)propyl)piperazin-1-yl)quinazolin-6-yl)-1-methylpyridin-2(1H)-one], the Kd is under 500 nM.

For `CN(C)CCN1CCN(c2nc(NCc3cncc(Cl)c3)c3cc(-c4ccc(=O)n(C)c4)ccc3n2)CC1` [Example 124, 5-(4-(((5-chloropyridin-3-yl)methyl)amino)-2-(4-(2-(dimethylamino)ethyl)piperazin-1-yl)quinazolin-6-yl)-1-methylpyridin-2(1H)-one], the Kd is under 500 nM.

Turning to `CN(C)CCCN1CCN(c2nc(NCc3cncc(Cl)c3)c3cc(-c4ccc(=O)n(C)c4)ccc3n2)CC1` [Example 125, 5-(4-(((5-chloropyridin-3-yl)methyl)amino)-2-(4-(3-(dimethylamino)propyl)piperazin-1-yl)quinazolin-6-yl)-1-methylpyridin-2(1H)-one], the Kd is under 500 nM.

Regarding `Cn1cc(-c2ccc3nc(N4CCN(CCO)CC4)nc(NCc4cncc(Cl)c4)c3c2)ccc1=O` [Example 126, 5-(4-(((5-chloropyridin-3-yl)methyl)amino)-2-(4-(2-hydroxyethyl)piperazin-1-yl)quinazolin-6-yl)-1-methylpyridin-2(1H)-one], the Kd was under 500 nM.

Consider `Cn1cc(-c2ccc3nc(N4CCN(CC(N)=O)CC4)nc(NCc4cncc(Cl)c4)c3c2)ccc1=O` [Example 127, 2-(4-(4-(((5-chloropyridin-3-yl)methyl)amino)-6-(1-methyl-6-oxo-1,6-dihydropyridin-3-yl)quinazolin-2-yl)piperazin-1-yl)acetamide], for which the Kd was under 500 nM.

As for `CNC(=O)CN1CCN(c2nc(NCc3cncc(Cl)c3)c3cc(-c4ccc(=O)n(C)c4)ccc3n2)CC1` [Example 128, 2-(4-(4-(((5-chloropyridin-3-yl)methyl)amino)-6-(1-methyl-6-oxo-1,6-dihydropyridin-3-yl)quinazolin-2-yl)piperazin-1-yl)-N-methylacetamide], the Kd was under 500 nM.

In the case of `CN(C)C(=O)CN1CCN(c2nc(NCc3cncc(Cl)c3)c3cc(-c4ccc(=O)n(C)c4)ccc3n2)CC1` [Example 129, 2-(4-(4-(((5-chloropyridin-3-yl)methyl)amino)-6-(1-methyl-6-oxo-1,6-dihydropyridin-3-yl)quinazolin-2-yl)piperazin-1-yl)-N,N-dimethylacetamide], the Kd was under 500 nM.

In the case of `Cc1noc(C)c1-c1ccc2nc(N3CCN(CCCN(C)C)CC3)nc(NCc3cncc(Cl)c3)c2c1` [Example 130, N-((5-chloropyridin-3-yl)methyl)-2-(4-(3-(dimethylamino)propyl)piperazin-1-yl)-6-(3,5-dimethylisoxazol-4-yl)quinazolin-4-amine], the Kd is under 500 nM.

For the molecule `Cc1noc(C)c1-c1ccc2nc(N3CCN(C(=O)CN)CC3)nc(NCc3cncc(Cl)c3)c2c1` [Example 131, 2-amino-1-(4-(4-(((5-chloropyridin-3-yl)methyl)amino)-6-(3,5-dimethylisoxazol-4-yl)quinazolin-2-yl)piperazin-1-yl)ethanone], the Kd is under 500 nM.

As for `Cc1noc(C)c1-c1ccc2nc(N3CCN(C(=O)CO)CC3)nc(NCc3cncc(Cl)c3)c2c1` [Example 132, 1-(4-(4-(((5-chloropyridin-3-yl)methyl)amino)-6-(3,5-dimethylisoxazol-4-yl)quinazolin-2-yl)piperazin-1-yl)-2-hydroxyethanone], the Kd was under 500 nM.

Consider `Cn1cc(-c2ccc3nc(N4CCN(C(=O)CN)CC4)nc(NCc4cncc(Cl)c4)c3c2)ccc1=O` [Example 133, 5-(2-(4-(2-aminoacetyl)piperazin-1-yl)-4-(((5-chloropyridin-3-yl)methyl)amino)quinazolin-6-yl)-1-methylpyridin-2(1H)-one], for which the Kd was under 500 nM.

`Cn1cc(-c2ccc3nc(N4CCN(CC(C)(C)O)CC4)nc(NCc4cccc(Cl)c4)c3c2)ccc1=O` [Example 134, 5-(4-((3-chlorobenzyl)amino)-2-(4-(2-hydroxy-2-methylpropyl)piperazin-1-yl)quinazolin-6-yl)-1-methylpyridin-2(1H)-one]: the Kd was under 500 nM.

On to `Cn1cc(-c2ccc3nc(N4CCN(CC(C)(C)O)CC4)nc(NCc4cncc(Cl)c4)c3c2)ccc1=O` [Example 135, 5-(4-(((5-chloropyridin-3-yl)methyl)amino)-2-(4-(2-hydroxy-2-methylpropyl)piperazin-1-yl)quinazolin-6-yl)-1-methylpyridin-2(1H)-one], for which the Kd was under 500 nM.

For the molecule `Cc1noc(C)c1-c1ccc2nc(N3CCN(CC(C)(C)O)CC3)nc(NCc3cncc(Cl)c3)c2c1` [Example 136, 1-(4-(4-(((5-chloropyridin-3-yl)methyl)amino)-6-(3,5-dimethylisoxazol-4-yl)quinazolin-2-yl)piperazin-1-yl)-2-methylpropan-2-ol], the Kd is under 500 nM.

For `Cc1noc(C)c1-c1ccc2nc(N3CCN(CC(C)(C)O)CC3)nc(NCc3cccc(Cl)c3)c2c1` [Example 137, 1-(4-(4-((3-chlorobenzyl)amino)-6-(3,5-dimethylisoxazol-4-yl)quinazolin-2-yl)piperazin-1-yl)-2-methylpropan-2-ol], the Kd is 500 to 5000 nM.

Turning to `Cc1noc(C)c1-c1ccc2nc(-c3cnn(C(C)(C)CO)c3)nc(NCc3cncc(Cl)c3)c2c1` [Example 138, 2-(4-(4-(((5-chloropyridin-3-yl)methyl)amino)-6-(3,5-dimethylisoxazol-4-yl)quinazolin-2-yl)-1H-pyrazol-1-yl)-2-methylpropan-1-ol], the Kd is under 500 nM.

On to `Cc1noc(C)c1-c1ccc2nc(-c3cnn(CC(C)(C)O)c3)nc(NCc3cncc(Cl)c3)c2c1` [Example 139, 1-(4-(4-(((5-chloropyridin-3-yl)methyl)amino)-6-(3,5-dimethylisoxazol-4-yl)quinazolin-2-yl)-1H-pyrazol-1-yl)-2-methylpropan-2-ol], for which the Kd was under 500 nM.

For the molecule `Cc1noc(C)c1-c1ccc2nc(-c3cnn(CC(=O)N(C)C)c3)nc(NCc3cncc(Cl)c3)c2c1` [Example 140, 2-(4-(4-(((5-chloropyridin-3-yl)methyl)amino)-6-(3,5-dimethylisoxazol-4-yl)quinazolin-2-yl)-1H-pyrazol-1-yl)-N,N-dimethylacetamide], the Kd was under 500 nM.

Consider `CNC(=O)Cn1cc(-c2nc(NCc3cncc(Cl)c3)c3cc(-c4c(C)noc4C)ccc3n2)cn1` [Example 141, 2-(4-(4-(((5-chloropyridin-3-yl)methyl)amino)-6-(3,5-dimethylisoxazol-4-yl)quinazolin-2-yl)-1H-pyrazol-1-yl)-N-methylacetamide], for which the Kd was under 500 nM.
